{"source": "paper PMC4707489", "about": "“A novel cell-penetrating peptide suppresses breast tumorigenesis by inhibiting β-catenin/LEF-1 signaling” (Scientific Reports, 2016)", "key": {"[1]": {"system": "MDA-MB-231-GFP cells xenograft", "experiment": "Xenograft tumor growth in nude mice", "assay_type": "in vivo, mouse", "conditions": "MDA-MB-231 xenograft, 1 and 10 mg/kg intratumoral once every 2 days for 35 days, n = 5 per group, vs control peptide", "description": "(§1) All animal experiments were approved by the Kaohsiung Medical University Institutional Animal Care and Use Committee (IACUC Approval No: 101156) and we accordance with the approved guidelines. Female nude mice (4–5 weeks old) were obtained from the National Laboratory Animal Center (Taipei, Taiwan). Xenograft tumor models were established by subcutaneous injection of 1 × 10^7 MCF-7-YFP or MDA-MB-231-GFP cells into the right flanks of mice. Mice with palpable tumors were randomly divided into three groups with five animals in each group. The mice were treated with control peptide, […], 1 and 10 mg/kg TAT-NLS-BLBD-6 by intratumoral injection once every 2 days for 35 days. The fluorescence density was analyzed by an In Vivo Imaging System (IVIS) (Berthold Technologies, Bad Wildbad, Germany), and the tumor volumes (V) of nude mice were calculated by: V = length × diameter^2 × 0.5. For zebrafish xenotransplantation, zebrafishes (Danio rerio) were maintained at 28 °C in an air incubator, and 1 × 10^4 MCF-7-GFP or MDA-MB-231-GFP cells combined with TAT-NLS-BLBD-6 or control peptide were injected into the zebrafish embryos according to the previously described protocol. The fluorescence density was measured 24 and 28 hr after injection using an epifluorescence microscope."}, "[2]": {"experiment": "Body weight and toxicity in xenograft models", "assay_type": "in vivo, mouse", "description": "as §1"}}}
{"substance": "H-TAT-NLS-ATDEMIPF-NH2 [TAT-NLS-BLBD-6]", "values": [{"measurement": "tumor growth", "setting": "[1]", "value": "inhibited tumor growth"}, {"measurement": "body weight", "setting": "[2]; nude mice, 1 and 10 mg/kg intratumoral once every 2 days for 35 days, vs control peptide", "value": "without having any effect on body weight"}, {"measurement": "signs of toxicity", "setting": "[2]; nude mouse and zebrafish xenotransplantation models", "value": "no signs of toxicity"}]}
